Here are results for 20 compounds from PubChem BioAssay AID214 (DTP/NCI, 2004).

The test system of the assay is B6C3F1 mice, colon carcinoma 38 s.c., T/C. Kind of assay: NCI In Vivo Anticancer Drug Screen. Data for tumor model Colon Carcinoma 38 (subcutaneous) in B6C3F1 mice. The following applies: higher = larger tumour. The method, then: The antitumor activity of compounds was measured in mice bearing transplantable tumors. Survival or tumor size were measured and the results are expressed as the measurement made in the treated group (T) divided by the measurement made in the vehicle treated control group (C). The tumor model used in this assay is Colon Carcinoma 38 (subcutaneous) in B6C3F1 mice

The mark [1] stands for this setting: endpoint: median tumor weight (est.), dose: 50.0 mg/kg/injection, schedule: Q07DX002 (ip), vehicle: Klucel (hydroxypropylcellulose) (HPC).
Where [2] appears, read: endpoint: median tumor weight (est.), dose: 200.0 mg/kg/injection, schedule: Q07DX002 (ip), vehicle: Klucel (hydroxypropylcellulose) (HPC).
Setting [3] is: endpoint: median tumor weight (est.), dose: 400.0 mg/kg/injection, schedule: Q07DX002 (ip), vehicle: Klucel (hydroxypropylcellulose) (HPC).
Setting [4] is: endpoint: median tumor weight (est.), dose: 12.5 mg/kg/injection, schedule: Q07DX002 (ip), vehicle: Klucel (hydroxypropylcellulose) (HPC).
[5] abbreviates: endpoint: median tumor weight (est.), dose: 100.0 mg/kg/injection, schedule: Q07DX002 (ip), vehicle: Klucel (hydroxypropylcellulose) (HPC).
[6] abbreviates: endpoint: median tumor weight (est.), dose: 25.0 mg/kg/injection, schedule: Q07DX002 (ip), vehicle: Klucel (hydroxypropylcellulose) (HPC).

Where “and” joins values, the source holds several entries; their conditions need not be identical. Identical values can stand only once. Records with an inconclusive call do not appear.

`COC(=O)Nc1nc2ccc(SC)cc2c(=O)[nH]1`: the T/C under setting [1] is 117 % of control, the T/C under setting [2] was 84 % of control and the T/C under setting [3] is 109 % of control.
With `Cc1c2ccccc2c(C)c2c1cc(C(=O)O)c1ccccc12`, the T/C was 66 % of control (endpoint: median tumor weight (est.), dose: 12.5 mg/kg/injection, schedule: Q07DX002 (ip), vehicle: sodium bicarbonate); 98 % of control (endpoint: median tumor weight (est.), dose: 25.0 mg/kg/injection, schedule: Q07DX002 (ip), vehicle: sodium bicarbonate); 74 % of control (endpoint: median tumor weight (est.), dose: 50.0 mg/kg/injection, schedule: Q07DX002 (ip), vehicle: sodium bicarbonate); 112 % of control (endpoint: median tumor weight (est.), dose: 62.5 mg/kg/injection, schedule: Q07DX002 (ip), vehicle: sodium bicarbonate); 107 % of control (endpoint: median tumor weight (est.), dose: 100.0 mg/kg/injection, schedule: Q07DX002 (ip), vehicle: sodium bicarbonate); 106 % of control (endpoint: median tumor weight (est.), dose: 125.0 mg/kg/injection, schedule: Q07DX002 (ip), vehicle: sodium bicarbonate). For the same compound, the T/C is 108 % of control (endpoint: median tumor weight (est.), dose: 200.0 mg/kg/injection, schedule: Q07DX002 (ip), vehicle: sodium bicarbonate); 76 % of control (endpoint: median tumor weight (est.), dose: 250.0 mg/kg/injection, schedule: Q07DX002 (ip), vehicle: sodium bicarbonate); 26 % of control (endpoint: median tumor weight (est.), dose: 500.0 mg/kg/injection, schedule: Q07DX002 (ip), vehicle: sodium bicarbonate); 23 % of control (endpoint: median tumor weight (est.), dose: 1000.0 mg/kg/injection, schedule: Q07DX002 (ip), vehicle: sodium bicarbonate).
Consider `NC(Cn1ccc(=O)c(O)c1)C(=O)O` (centres undefined), for which the T/C reads like this: (endpoint: median tumor weight (est.), dose: 100.0 mg/kg/injection, schedule: Q07DX002 (ip), vehicle: saline) 97 % of control; (endpoint: median tumor weight (est.), dose: 400.0 mg/kg/injection, schedule: Q07DX002 (ip), vehicle: saline) 54 % of control; (endpoint: median tumor weight (est.), dose: 800.0 mg/kg/injection, schedule: Q07DX002 (ip), vehicle: saline) 156 % of control.
Regarding `CCCCNc1ccc2nnc(C)n2n1`, the T/C was 98 % of control (endpoint: median tumor weight (est.), dose: 50.0 mg/kg/injection, schedule: Q07DX002 (ip), vehicle: DMSO) and 114 % of control (endpoint: median tumor weight (est.), dose: 200.0 mg/kg/injection, schedule: Q07DX002 (ip), vehicle: DMSO).
Take `Nc1nc(-c2ccccc2)c(Br)c(=O)[nH]1`: the T/C (endpoint: median tumor weight (est.), dose: 200.0 mg/kg/injection, schedule: Q07DX002 (ip), vehicle: saline with Tween-80) is 115 % of control and the T/C (endpoint: median tumor weight (est.), dose: 400.0 mg/kg/injection, schedule: Q07DX002 (ip), vehicle: saline with Tween-80) was 87 % of control.
With `NC(CCl)=NCC12CC3CC(CC(C3)C1)C2`, the T/C is 110 % of control under setting [4]; 94 % of control and 108 % of control under setting [5].
As for `[Cl][Hg][Cl]`, the T/C runs as follows: (endpoint: median tumor weight (est.), dose: 1.56 mg/kg/injection, schedule: Q07DX002 (ip), vehicle: saline) 80 % of control; (endpoint: median tumor weight (est.), dose: 3.12 mg/kg/injection, schedule: Q07DX002 (ip), vehicle: saline) 124 % of control.
For `O=C1C2CC(Cl)C(SSC3CC4C(=O)N(SC(Cl)(Cl)C(Cl)Cl)C(=O)C4CC3Cl)CC2C(=O)N1SC(Cl)(Cl)C(Cl)Cl` (centres undefined), the T/C is 91 % of control under setting [6], 66 % of control under setting [1] and 74 % of control under setting [5].
Consider `CSc1ncc2ncn(C3OC(CO)C(O)C3O)c2n1` (centres undefined), for which the T/C is 120 % of control under setting [5], 78 % of control under setting [2] and 120 % of control under setting [3].
As to `O=c1[nH]cnc2[nH]ncc12`, the T/C is 83 % of control (endpoint: median tumor weight (est.), dose: 25.0 mg/kg/injection, schedule: Q07DX002 (ip), vehicle: suspension in saline); 69 % of control (endpoint: median tumor weight (est.), dose: 50.0 mg/kg/injection, schedule: Q07DX002 (ip), vehicle: suspension in saline); 88 % of control (endpoint: median tumor weight (est.), dose: 100.0 mg/kg/injection, schedule: Q07DX002 (ip), vehicle: suspension in saline).
Regarding `COC12C(COC(=O)NCCO)C3=C(C(=O)C(C)=C(N)C3=O)N1CC1NC12` (centres undefined), the T/C runs as follows: under setting [4], 65 % of control; under setting [6], 50 % of control; under setting [1], 12 % of control.
Regarding `Oc1c(Cl)cc(Cl)cc1C=NCCSc1ccc(Cl)cc1`, the T/C under setting [1] was 118 % of control, the T/C under setting [5] was 81 % of control, the T/C under setting [2] was 109 % of control and the T/C under setting [3] was 63 % of control.
As to `O=c1[nH]cc(F)c(=O)[nH]1`, the T/C runs as follows: (endpoint: median tumor weight (est.), dose: 8.75 mg/kg/injection, schedule: Q07DX002 (ip), vehicle: saline) 59 % of control; (endpoint: median tumor weight (est.), dose: 24.0 mg/kg/injection, schedule: Q01DX006 (ip), vehicle: saline) 9 % of control; (endpoint: median tumor weight (est.), dose: 36.0 mg/kg/injection, schedule: Q01DX006 (ip), vehicle: saline) 7 % of control; (endpoint: optimum tumor weight change, dose: 35.0 mg/kg/injection, schedule: Q07DX002 (ip), vehicle: saline) 48 % of control; (endpoint: optimum tumor weight change, dose: 70.0 mg/kg/injection, schedule: Q07DX002 (ip), vehicle: saline) 46 % of control; (endpoint: optimum tumor weight change, dose: 140.0 mg/kg/injection, schedule: Q07DX002 (ip), vehicle: saline) 45 % of control.
As to `CCCCCCCCCCCCCCCCCC(=O)Nc1ccn(C2OC(CO)C(O)C2O)c(=O)n1` (centres undefined), the T/C runs as follows: (endpoint: median tumor weight (est.), dose: 12.5 mg/kg/injection, schedule: Q07DX002 (ip), vehicle: saline with Tween-80) 64 % of control; (endpoint: median tumor weight (est.), dose: 25.0 mg/kg/injection, schedule: Q07DX002 (ip), vehicle: saline with Tween-80) 40 % of control; (endpoint: median tumor weight (est.), dose: 50.0 mg/kg/injection, schedule: Q07DX002 (ip), vehicle: saline with Tween-80) 49 % of control; (endpoint: median tumor weight (est.), dose: 100.0 mg/kg/injection, schedule: Q07DX002 (ip), vehicle: saline with Tween-80) 23 % of control.
`CCCNC1=C(C)C(=O)C2=C(C1=O)[C@H](COC(N)=O)[C@]1(OC)[C@@H]3N[C@@H]3CN21`: the T/C (endpoint: median tumor weight (est.), dose: 1.5 mg/kg/injection, schedule: Q07DX002 (ip), vehicle: suspension in saline) was 73 % of control; the T/C (endpoint: median tumor weight (est.), dose: 3.0 mg/kg/injection, schedule: Q07DX002 (ip), vehicle: suspension in saline) was 114 % of control; the T/C (endpoint: median tumor weight (est.), dose: 6.0 mg/kg/injection, schedule: Q07DX002 (ip), vehicle: suspension in saline) is 112 % of control; the T/C (endpoint: median tumor weight (est.), dose: 12.0 mg/kg/injection, schedule: Q07DX002 (ip), vehicle: suspension in saline) was 33 % of control; the T/C (endpoint: median tumor weight (est.), dose: 24.0 mg/kg/injection, schedule: Q07DX002 (ip), vehicle: suspension in saline) was 36 % of control.
With `C[C@@H]1CC[C@]2(C)CC[C@]3(C)C(=CC[C@@H]4[C@@]5(C)CC[C@@H](OC(=O)c6ccc(O)cc6)C(C)(C)[C@@H]5C[C@H](O)[C@]43C)[C@@H]2[C@H]1C(=O)O`, the T/C reads like this: (endpoint: median tumor weight (est.), dose: 0.12 mg/kg/injection, schedule: Q07DX002 (ip), vehicle: saline with Tween-80) 164 % of control; (endpoint: median tumor weight (est.), dose: 0.5 mg/kg/injection, schedule: Q07DX002 (ip), vehicle: saline with Tween-80) 49 % of control; (endpoint: median tumor weight (est.), dose: 1.0 mg/kg/injection, schedule: Q07DX002 (ip), vehicle: saline with Tween-80) 50 % of control; (endpoint: median tumor weight (est.), dose: 2.0 mg/kg/injection, schedule: Q07DX002 (ip), vehicle: saline with Tween-80) 50 % of control.
As to `O.O.[NH-]C1CCCCC1[NH-].[Pt+2]` (centres undefined), the T/C reads like this: (endpoint: median tumor weight (est.), dose: 10.0 mg/kg/injection, schedule: Q07DX002 (ip), vehicle: dextrose) 72 % of control; (endpoint: median tumor weight (est.), dose: 20.0 mg/kg/injection, schedule: Q07DX002 (ip), vehicle: dextrose) 60 % of control; (endpoint: median tumor weight (est.), dose: 40.0 mg/kg/injection, schedule: Q07DX002 (ip), vehicle: dextrose) 29 % of control; (endpoint: median tumor weight (est.), dose: 80.0 mg/kg/injection, schedule: Q07DX002 (ip), vehicle: dextrose) 16 % of control and 17 % of control.
Turning to `COCCCNC1=C(C#N)C(=O)NC(c2cccc([N+](=O)[O-])c2)S1` (centres undefined), the T/C is 172 % of control (endpoint: median tumor weight (est.), dose: 225.0 mg/kg/injection, schedule: Q07DX002 (ip), vehicle: saline with Tween-80); 171 % of control (endpoint: median tumor weight (est.), dose: 450.0 mg/kg/injection, schedule: Q07DX002 (ip), vehicle: saline with Tween-80); 159 % of control (endpoint: median tumor weight (est.), dose: 900.0 mg/kg/injection, schedule: Q07DX002 (ip), vehicle: saline with Tween-80).
On to `Cn1c(=O)[nH]c2nncnc2c1=O`, for which the T/C is 104 % of control and 112 % of control (endpoint: median tumor weight (est.), dose: 12.5 mg/kg/injection, schedule: Q07DX002 (ip), vehicle: water); 117 % of control and 119 % of control (endpoint: median tumor weight (est.), dose: 50.0 mg/kg/injection, schedule: Q07DX002 (ip), vehicle: water); 120 % of control (endpoint: median tumor weight (est.), dose: 100.0 mg/kg/injection, schedule: Q07DX002 (ip), vehicle: water).
As for `O=C1CC2(C(=O)N1CN1CCOCC1)c1ccccc1-c1ccccc12`, the T/C by setting is: under setting [1], 99 % of control; under setting [5], 44 % of control; under setting [2], 107 % of control; under setting [3], 79 % of control; (endpoint: median tumor weight (est.), dose: 800.0 mg/kg/injection, schedule: Q07DX002 (ip), vehicle: Klucel (hydroxypropylcellulose) (HPC)) 56 % of control.
